Like-named read-outs stand apart in the source and are kept apart here.

This passage reports IC50 results from patent US12358915B2, “METTL3 inhibitory compounds” (STORM THERAPEUTICS LTD., priority 2019, dated 2025).

Test [1] concerns the target T1, METTL3/14 (Homo sapiens, UniProt Q86U44).
T1 construct: The enzyme used was full-length his-tagged METTL3; His; made in house
Kind of test: METTL3/14 methyltransferase assay (METTL3_14 RFMS, RapidFire mass spectrometry).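 Note: recombinant His-tagged METTL3 with FLAG-tagged METTL14 from baculovirus, SAH product quantified by mass spectrometry against isotope-labelled internal standards, 60 min at room temperature, scaled between no-RNA and DMSO-only wells.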 Type of test: biochemical. Particulars: 5 nM METTL3/14, 0.2 μM RNA substrate, 0.5 μM SAM, lower limit of the assay IC50=5 nM, read-out: METTL3_14 RFMS IC50.

In test [2] the test system is MOLM-13 cells. Kind of test: MOLM13 CTG - analysis of cell proliferation (Cell Titre Glo). Type of test: cell-based. Particulars: Homo sapiens, geometric mean, read-out: CTG MOLM13 cells IC50 GEOMEAN.

T1 sequence (Q86U44 whole entry): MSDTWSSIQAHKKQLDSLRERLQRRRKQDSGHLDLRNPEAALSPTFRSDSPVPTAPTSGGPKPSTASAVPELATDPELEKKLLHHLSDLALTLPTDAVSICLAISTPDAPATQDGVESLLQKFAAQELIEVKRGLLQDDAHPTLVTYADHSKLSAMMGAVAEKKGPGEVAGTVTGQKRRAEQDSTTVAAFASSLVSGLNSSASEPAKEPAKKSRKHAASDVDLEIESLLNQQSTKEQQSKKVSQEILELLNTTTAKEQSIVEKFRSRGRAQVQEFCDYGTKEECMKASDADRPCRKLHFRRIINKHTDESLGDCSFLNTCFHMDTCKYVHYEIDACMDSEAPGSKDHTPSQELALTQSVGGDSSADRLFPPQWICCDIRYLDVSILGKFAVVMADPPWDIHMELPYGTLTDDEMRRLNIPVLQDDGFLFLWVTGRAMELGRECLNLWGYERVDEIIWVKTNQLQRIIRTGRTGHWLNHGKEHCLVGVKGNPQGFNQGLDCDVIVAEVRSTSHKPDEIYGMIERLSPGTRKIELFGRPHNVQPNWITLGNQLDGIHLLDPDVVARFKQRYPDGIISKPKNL
T1 sequence (Q9HCE5 whole entry partner): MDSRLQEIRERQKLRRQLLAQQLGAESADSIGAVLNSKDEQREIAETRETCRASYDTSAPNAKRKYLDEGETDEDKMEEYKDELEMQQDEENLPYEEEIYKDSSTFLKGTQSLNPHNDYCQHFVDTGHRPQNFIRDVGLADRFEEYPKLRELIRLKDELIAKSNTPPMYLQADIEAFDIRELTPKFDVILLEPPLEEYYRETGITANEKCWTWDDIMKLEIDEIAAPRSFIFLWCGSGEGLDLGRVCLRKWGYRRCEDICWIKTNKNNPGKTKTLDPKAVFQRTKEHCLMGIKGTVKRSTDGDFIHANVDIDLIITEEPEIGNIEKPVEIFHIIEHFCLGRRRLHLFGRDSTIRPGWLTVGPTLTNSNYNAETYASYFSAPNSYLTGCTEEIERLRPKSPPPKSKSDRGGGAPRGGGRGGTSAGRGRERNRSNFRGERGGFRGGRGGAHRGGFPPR

Consider `CC(NCC1CCCCC1)c1ccc2nc(Cn3cc(-c4cccc5[nH]ncc45)nn3)cn2c1` (stereo not drawn) [Example 255], for which the IC50 (in general, the concentration that inhibits the measured activity by half) in test [1] (Compounds 63-265) is 25.8 nM; in test [2], 9610 nM.

`CN(C)C(=O)c1cc(-c2cn(Cc3cn4cc(CNCC5CCC5)ccc4n3)nn2)c2cn[nH]c2c1` [Example 299, 4-[1-[[6-[(cyclobutylmethylamino)methyl]imidazo[1,2-a]pyridin-2-yl]methyl]triazol-4-yl]-N,N-dimethyl-1H-indazole-6-carboxamide]: the values for the IC50 in test [1] (Compounds 266-351) and in test [2] were 112 nM and ≥ 30000 nM, respectively.

As to `CC1(C)CCN(Cc2ccc3nc(Cn4cc(-c5cccc6[nH]ncc56)nn4)cn3c2)CC1` [Example 251, 4-[1-({6-[(4,4-dimethylpiperidin-1-yl)methyl]imidazo[1,2-a]pyridin-2-yl}methyl)-1H-1,2,3-triazol-4-yl]-1H-indazole], the IC50 is 5.76 nM in test [1] (Compounds 63-265) and 727 nM in test [2].

For `OC1(CNCc2ccc3nc(Cn4cc(-c5cc(F)cc6[nH]ncc56)nn4)cn3c2)CCC1` [Example 319, 1-[[[2-[[4-(6-fluoro-1H-indazol-4-yl)triazol-1-yl]methyl]imidazo[1,2-a]pyridin-6-yl]methylamino]methyl]cyclobutanol], the IC50 was 7.84 nM in test [1] (Compounds 266-351) and 4380 nM in test [2].

Take `O=C(c1cc(-c2cn(Cc3cn4cc(CNCC5CCC5)ccc4n3)nn2)c2cn[nH]c2c1)N1CCOCC1` [Example 300, [4-[1-[[6-[(cyclobutylmethylamino)methyl]imidazo[1,2-a]pyridin-2-yl]methyl]triazol-4-yl]-1H-indazol-6-yl]-morpholino-methanone]: the IC50 in test [1] (Compounds 266-351) is 511 nM; in test [2], ≥ 30000 nM.

Turning to `O=C(NCc1cn2cc(CNCC3(O)CCCCC3)ccc2n1)c1cc(=O)n2ccccc2n1` [Compound 209, N-{[6-({[(1-hydroxycyclohexyl)methyl]amino}methyl)imidazo [1,2-a]pyridin-2-yl]methyl}-4-oxo-4H-pyrido [1,2-a]pyrimidine-2-carboxamide], the 50% inhibitory concentration (IC50) in test [1] (Compounds 63-265) came out at 10 nM; in test [2], 6580 nM.

For `O=C1CC(c2ccc3nc(CNC(=O)c4cc(=O)n5ccccc5n4)cn3c2)NC(C2CCCCC2)C1` (mixture of isomers) [Example 334, N-[[6-(6-cyclohexyl-4-oxo-2-piperidyl)imidazo[1,2-a]pyridin-2-yl]methyl]-4-oxo-pyrido[1,2-a]pyrimidine-2-carboxamide], the IC50 came to 122 nM in test [1] (Compounds 266-351) and 17900 nM in test [2].

In the case of `O=C(NCc1cn2cc(CNCC3CCCC3)ccc2n1)c1cc(=O)n2ccccc2n1` [Compound 210, N-[(6-{[(cyclopentyl-methyl)amino]methyl}imidazo [1,2-a]pyridin-2-yl)methyl]-4-oxo-4H-pyrido [1,2-a]pyrimidine-2-carboxamide], the IC50 in test [1] (Compounds 63-265) amounted to 20.3 nM; in test [2] it was 5020 nM.

Consider `O=C(NCc1cn2cc(CNCC3CCC(F)(F)C3)ccc2n1)c1cc(=O)n2ccccc2n1` (stereo not drawn) [Compound 211, N-{[6-({[(3,3-difluorocyclopentyl)methyl]amino}methyl)imidazo [1,2-a]pyridin-2-yl]methyl}-4-oxo-4H-pyrido[1,2-a]pyrimidine-2-carboxamide], for which the IC50 in test [1] (Compounds 63-265) worked out at 19.3 nM; in test [2] it was 11400 nM.

For the compound `O=C(NCc1cn2cc(CNCC3CCC3)ccc2n1)c1cccc2[nH]ncc12` [Example 322, N-[[6-[(cyclobutylmethylamino)methyl]imidazo[1,2-a]pyridin-2-yl]methyl]-1H-indazole-4-carboxamide], the figures for the IC50 in test [1] (Compounds 266-351) and in test [2] were 32.5 nM and 11000 nM, respectively.

Take `CCC(C)CNCc1ccc2nc(CNC(=O)c3cc(=O)n4ccccc4n3)cn2c1` (stereo not drawn) [Compound 285, N-[[6-[(2-methylbutylamino)methyl]imidazo[1,2-a]pyridin-2-yl]methyl]-4-oxo-pyrido[1,2-a]pyrimidine-2-carboxamide]: the results for the IC50 in test [1] (Compounds 266-351) and in test [2] were 15 nM and 7370 nM, respectively.

`O=C(NCc1cn2cc(CN3CCCCC3)ccc2n1)c1cc(=O)n2ccccc2n1` [Compound 104, 4-oxo-N-({6-[(piperidin-1-yl)methyl]imidazo[1,2-a]pyridin-2-yl}methyl)-4H-pyrido[1,2-a] pyrimidine-2-carboxamide]: the IC50 came out at 69.1 nM in test [1] (Compounds 63-265) and 8730 nM in test [2].

With `O=C(NCc1cn2cc(CN3CCC4(CC3)CC4)ccc2n1)c1cc(=O)n2ccccc2n1` [Compound 216, N-{[6-({6-azaspiro[2.5]octan-6-yl}methyl)imidazo [1,2-a]pyridin-2-yl]methyl}-4-oxo-4H-pyrido [1,2-a]pyrimidine-2-carboxamide], the IC50 was determined as 14.9 nM in test [1] (Compounds 63-265) and 3510 nM in test [2].

Consider `c1cc2nc(Cn3cc(-c4cc(N5CCOCC5)cc5[nH]ncc45)nn3)cn2cc1CNCC1CCC1` [Example 311, N-(cyclobutylmethyl)-1-[2-[[4-(6-morpholino-1H-indazol-4-yl)triazol-1-yl]methyl]imidazo[1,2-a]pyridin-6-yl]methanamine], for which the results for the half-maximal inhibitory concentration (IC50) in test [1] (Compounds 266-351) and in test [2] were 19 nM and 3680 nM, respectively.

Turning to `COC1(CNCc2ccc3nc(CNC(=O)c4cc(=O)n5ccccc5n4)cn3c2)CCC1` [Compound 273, N-[[6-[[(1-methoxycyclobutyl)methylamino]methyl]imidazo[1,2-a]pyridin-2-yl]methyl]-4-oxo-pyrido[1,2-a]pyrimidine-2-carboxamide], the IC50 was determined as 27.7 nM in test [1] (Compounds 266-351) and 9020 nM in test [2].

In the case of `c1cc(-c2cn(Cc3cn4cc(CNCC5CCCCC5)ccc4n3)nn2)c2cn[nH]c2c1` [Compound 248, (cyclohexylmethyl)[(2-{[4-(1H-indazol-4-yl)-1H-1,2,3-triazol-1-yl]methyl}imidazo[1,2-a]pyridin-6-yl)methyl]amine], the results for the IC50 in test [1] (Compounds 63-265) and in test [2] were 12.7 nM and 1930 nM, respectively.

As to `O=C(NCc1cn2cc(CNC3CC34CCC4)ccc2n1)c1cc(=O)n2ccccc2n1` (stereo not drawn) [Compound 280, 4-oxo-N-[[6-[(spiro[2.3]hexan-2-ylamino)methyl]imidazo[1,2-a]pyridin-2-yl]methyl]pyrido[1,2-a]pyrimidine-2-carboxamide], the IC50 in test [1] (Compounds 266-351) was 13.1 nM; in test [2] it was 4500 nM.

On to `O=C(NCc1cn2cc(CNC3CCC3)ccc2n1)c1cc(=O)n2ccccc2n1` [Compound 126, N-({6-[(cyclobutylamino)methyl]imidazo [1,2-a]pyridin-2-yl}methyl)-4-oxo-4H-pyrido [1,2-a]pyrimidine-2-carboxamide], for which the figures for the IC50 in test [1] (Compounds 63-265) and in test [2] were 79.8 nM and ≥ 30000 nM, respectively.

In the case of `CC(C)(C)C(C)(C)NCc1ccc2nc(CNC(=O)c3cc(=O)n4ccccc4n3)cn2c1` [Compound 195, 4-oxo-N-[(6-{[(2,3,3-trimethylbutan-2-yl)amino]methyl}imidazo [1,2-a]pyridin-2-yl)methyl]-4H-pyrido[1,2-a]pyrimidine-2-carboxamide], the half-maximal inhibitory concentration (IC50) in test [1] (Compounds 63-265) came out at 32.4 nM; in test [2] it was 9770 nM.

Take `CC(C)(C)CNCc1ccc2nc(Cn3cc(-c4cc(Br)cc5[nH]ncc45)nn3)cn2c1` [Example 225, [(2-{[4-(6-bromo-1H-indazol-4-yl)-1H-1,2,3-triazol-1-yl]methyl}imidazo[1,2-a]pyridin-6-yl)methyl](2,2-dimethylpropyl)amine]: the IC50 is 6.69 nM in test [1] (Compounds 63-265) and 649 nM in test [2].

`FC1(F)CC(CNCc2ccc3nc(Cn4cc(-c5cc(Br)cc6[nH]ncc56)nn4)cn3c2)C1` [Example 252, [(2-{[4-(6-bromo-1H-indazol-4-yl)-1H-1,2,3-triazol-1-yl]methyl}imidazo[1,2-a]pyridin-6-yl)methyl][(3,3-difluorocyclobutyl)methyl]amine]: the results for the 50% inhibitory concentration (IC50) in test [1] (Compounds 63-265) and in test [2] were 8.02 nM and 714 nM, respectively.

For `Clc1ccc(-c2cn(Cc3cn4cc(CNCC5CCC5)ccc4n3)nn2)c2cn[nH]c12` [Example 315, 1-[2-[[4-(7-chloro-1H-indazol-4-yl)triazol-1-yl]methyl]imidazo[1,2-a]pyridin-6-yl]-N-(cyclobutylmethyl)methanamine], the figures for the IC50 in test [1] (Compounds 266-351) and in test [2] were 19.3 nM and 8360 nM, respectively.

`CC[C@H](C)CNCc1ccc2nc(CNC(=O)c3cc(=O)n4ccccc4n3)cn2c1` [Compound 293, N-[[6-[[[(2S)-2-methylbutyl]amino]methyl]imidazo[1,2-a]pyridin-2-yl]methyl]-4-oxo-pyrido[1,2-a]pyrimidine-2-carboxamide]: the IC50 in test [1] (Compounds 266-351) turned out to be 12.8 nM; in test [2] it was 4720 nM.

Take `OC1(CNCc2ccc3nc(Cn4cc(-c5ccc(F)c6[nH]ncc56)nn4)cn3c2)CCC1` [Example 308, 1-[[[2-[[4-(7-fluoro-1H-indazol-4-yl)triazol-1-yl]methyl]imidazo[1,2-a]pyridin-6-yl]methylamino]methyl]cyclobutanol]: the IC50 amounted to 11.4 nM in test [1] (Compounds 266-351) and 5610 nM in test [2].

For `CC(C)(C)NCc1ccc2nc(CNC(=O)c3cc(=O)n4ccccc4n3)cn2c1` [Compound 127, N-({6-[(tert-butylamino)methyl]imidazo [1,2-a]pyridin-2-yl}methyl)-4-oxo-4H-pyrido[1,2-a] pyrimidine-2-carboxamide], the IC50 in test [1] (Compounds 63-265) was 429 nM; in test [2], ≥ 30000 nM.

Regarding `O=C(NCc1cn2cc(CNCCC3CC(F)(F)C3)ccc2n1)c1cc(=O)n2ccccc2n1` [Compound 213, N-{[6-({[2-(3,3-difluorocyclo-butyl)ethyl]amino}methyl)imidazo[1,2-a]pyridin-2-yl]methyl}-4-oxo-4H-pyrido [1,2-a]pyrimidine-2-carboxamide], the IC50 in test [1] (Compounds 63-265) is 41.8 nM; in test [2], ≥ 30000 nM.

Consider `Fc1cc(-c2cn(Cc3cn4cc(CNCC5CCCCC5)ccc4n3)nn2)c2cn[nH]c2c1` [Example 320, N-(cyclohexylmethyl)-1-[2-[[4-(6-fluoro-1H-indazol-4-yl)triazol-1-yl]methyl]imidazo[1,2-a]pyridin-6-yl]methanamine], for which the IC50 stood at 6.16 nM in test [1] (Compounds 266-351) and 2760 nM in test [2].
